Experiments:
diol dehydrase [1] = biological target: T1, diol dehydrase (Klebsiella oxytoca, UniProt Q59470+Q59471+Q59472); assay: Inhibition constant (Ki) of vitamin B12 derivative against vitamin B12 coenzyme, Lineweaver-Burk plot; format: biochemical; conditions: against varied adenosylcobalamin
T1 construct: (alpha beta gamma)2 hexamer
T1 sequence (Q59470 1-554): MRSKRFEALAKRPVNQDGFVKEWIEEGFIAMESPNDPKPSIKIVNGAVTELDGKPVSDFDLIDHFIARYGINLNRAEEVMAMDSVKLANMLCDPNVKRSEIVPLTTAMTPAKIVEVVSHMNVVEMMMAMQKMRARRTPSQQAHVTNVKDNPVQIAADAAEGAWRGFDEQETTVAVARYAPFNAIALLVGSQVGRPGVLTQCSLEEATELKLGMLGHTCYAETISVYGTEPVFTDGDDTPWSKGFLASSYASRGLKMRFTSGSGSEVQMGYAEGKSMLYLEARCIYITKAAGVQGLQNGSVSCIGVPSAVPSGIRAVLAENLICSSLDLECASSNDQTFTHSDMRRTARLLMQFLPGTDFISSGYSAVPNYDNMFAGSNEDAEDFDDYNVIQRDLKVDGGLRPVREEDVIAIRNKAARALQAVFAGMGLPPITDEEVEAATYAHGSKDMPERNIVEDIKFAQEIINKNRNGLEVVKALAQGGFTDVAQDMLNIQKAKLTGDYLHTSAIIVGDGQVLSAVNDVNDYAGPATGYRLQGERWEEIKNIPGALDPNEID
T1 sequence (Q59471 1-224): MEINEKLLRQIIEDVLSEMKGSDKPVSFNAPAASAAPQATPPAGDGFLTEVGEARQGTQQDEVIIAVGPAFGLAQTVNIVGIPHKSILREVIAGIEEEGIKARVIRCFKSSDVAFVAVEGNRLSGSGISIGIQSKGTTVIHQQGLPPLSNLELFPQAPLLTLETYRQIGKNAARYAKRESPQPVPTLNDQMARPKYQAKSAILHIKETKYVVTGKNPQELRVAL
T1 sequence (Q59472 1-173): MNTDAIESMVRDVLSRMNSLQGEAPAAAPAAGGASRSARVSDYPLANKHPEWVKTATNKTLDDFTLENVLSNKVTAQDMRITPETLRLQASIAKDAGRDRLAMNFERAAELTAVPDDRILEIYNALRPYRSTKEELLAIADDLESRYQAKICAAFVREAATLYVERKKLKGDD
Protocol: (§1) As the enzyme, diol dehydrase was employed. […] Diol dehydrase was highly purified from Klebsiella pneumoniae ATCC 8724 according to the method of Poznanskaya (Arch. Biochem. Biophys., vol. 194, p. 379-386, 1979) and adjusted to a solution of 0.3 Unit/ml with 0.05 M potassium phosphate buffer (pH 8.0). As the substrate of this enzyme, a 1 M aqueous 1,2-propanediol solution was employed.
(§2) In an ice-water bath, 0.1 ml of the substrate solution, 0.1 ml of 0.5 M aqueous potassium chloride solution, 0.1 ml of diol dehydrase solution, and 0.6 ml of 0.05 M potassium phosphate buffer (pH 8.0) were mixed, and to the mixture were added, in the dark, 0.1 ml of 0.2 mM vitamin B12 coenzyme (adenosylcobalamin), vitamin B12 (cyanocobalamin) or each vitamin B12 derivative prepared in Examples 1 to 10. After the mixture was incubated in the dark at 37° C. for 10 minutes, 1 ml of 0.1M potassium citrate buffer (pH 3.6) was added to stop the enzyme reaction, and then 0.5 ml of 0.1% aqueous 3-methyl-2-benzothianolinonehydrazone was added, followed by a continuation of the incubation at 37° C. for 15 minutes. To the mixture was added 1 ml of water, and the absorbance at 305 nm was measured by a Shimazu Double-beam Spectrophotometer Model UV-140-02 Model and the coenzyme activity (kcat) was calculated.
Namely, in the method 1) in Example 11, by adding adequately varied concentration of the vitamin B12 coenzyme (adenosylcobalamin) to a fixed concentration of each vitamin B12 derivative, the enzyme activity was respectively assayed and the inhibition constant (Ki) was determined by the Lineweaver-Burk plot. The inhibitory activity is stronger when the Ki is smaller.

diol dehydrase [2] = biological target: T1, diol dehydrase; assay: Assay of coenzyme activity (kcat) with diol dehydrase; format: biochemical, Klebsiella pneumoniae ATCC 8724; conditions: for coenzyme activity (in words): diol dehydrase; for Kcat (coenzyme activity): diol dehydrase, 1,2-propanediol substrate, 37° C., pH 8.0; method 1) or 2); for Kcat, activity relative to the vitamin B12 coenzyme (adenosylcobalamin): relative to adenosylcobalamin = 100
Protocol: The coenzyme activities of vitamin B12 derivatives prepared in Examples 1 to 10 were assayed according to the two methods shown below.
1) Assay of coenzyme activity by using 3-methyl-2-benzothiazolinonehydrazone
The assay was carried out according to the method of Toraya et al. (J. Biol. Chem., vol. 252, p. 963-970, 1977).
as §1, §2
2) Assay of coenzyme activity using alcohol dehydrogenase and reduced nicotinamide adenine dinucleotide
The assay was carried out according to the method of Toraya et al. (Biochemistry, vol. 18, p. 417-426, 1979).
The diol dehydrase employed was diluted with 0.05 M potassium phosphate buffer (pH 8.0) to 0.15 Unit/ml, and 1M aqueous propanediol was used as the substrate solution. By using a 0.05 M potassium phosphate buffer (pH 8.0), 0.5 mg/ml of alcohol dehydrogenase and a 2 mM reduced nicotinamide adenine dinucleotide were prepared. To a mixture of 0.1 ml of the substrate solution, 0.1 ml of the alcohol dehydrogenase solution, 0.1 ml of the reduced nicotinamide adenine dinucleotide solution, and 0.5 ml of the 0.05 M potassium phosphate buffer (pH 8.0) was added 0.1 ml of the diol dehydrase solution. After the mixture was incubated at 37° C. for 5 minutes, there were added, in the dark, 0.1 ml of 0.2 mM vitamin B12 coenzyme (adenosylcobalamin), vitamin B12 (cyanocobalamin) or each vitamin B12 derivative prepared in Examples 1 to 10, and the coenzyme activity (kcat) was calculated by continuously monitoring the decrease in absorbance at 340 nm, by a Union Spectrophotometer SM-401.
The coenzyme activity is higher when the kcat is larger. The activity relative to the vitamin B12 coenzyme (adenosylcobalamin) is also shown in % in Table 1.

[3] = system: mouse leukemia L1210 cells; assay: Viability of cultured L1210 cells on day 9 by Trypan blue staining; format: cell-based; conditions: day 9, MTX 200 nM only; 12960 min
Protocol: The mouse leukemia L1210 cells employed for this experiment were grown and maintained intraperitoneally in DBA mice, taken out together with ascites and aseptically cultured as adapted for RPMI-1640 medium for animal cell culture supplemented with fetal bovine serum (5 v/v %) and ethanolamine (1.2 mg/liter), but devoid of vitamin B12 (cyanocobalamin). Also, 100,000 units of penicillin and 100 mg of streptomycin were added as the antimicrobial agent, per liter of this medium. The L1210 cells grown and adapted in vitro were further adapted to the above-mentioned medium containing 7.0 g/liter of bovine serum albumin in place of the fetal bovine serum, following the method of Fujii et al. (J. Biol. Chem., vol. 256, p. 10329-10334, 1981), and then used for experiment.
To examine the L1210 growth inhibitory activities of the vitamin B12 derivatives synthesized in Examples 2 and 5, first L1210 cells adapted to albumin were inoculated at a density of 5×10^4 cells/ml into the same medium containing folic acid at 10 μM concentration, and a preculture was carried out under a humidified atmosphere of CO2 /air (5%/95%) at 37° C. for 3 days. The cells grown were centrifuged, then washed twice with the same medium containing no folic acid, to prepare an inoculum cell suspension of about 5×10^6 cells/mi. […]

diol dehydrase [4] = biological target: T1, diol dehydrase; assay: Michaelis constant (Km) of vitamin B12 derivative, Lineweaver-Burk plot; format: biochemical, Klebsiella pneumoniae ATCC 8724
Protocol: as §1, §2
Namely, in the method 1) in Example 11, the respective enzyme activities were assayed by suitably varying the concentration of the vitamin B12 derivative, and Michaelis constant (km) was determined by the Lineweaver Burk plot. The affinity (binding ability) for the enzyme is higher when the Km is smaller.

Row | Compound | Ki (diol dehydrase [1]) | coenzyme activity (in words) (diol dehydrase [2]) | cells found dead (Trypan blue) [3] | Km (diol dehydrase [4]) | Kcat (coenzyme activity) (diol dehydrase [2]) | Kcat, activity relative to the vitamin B12 coenzyme (adenosylcobalamin) (diol dehydrase [2])
1 | 2-(5,6-dimethylbenzimidazolyl)ethyladenosylcobinamide phosphoric acid [Example 6] | 52 µM | no coenzyme activity |  |  |  | 
2 | CN(Cc1cnc2nc(N)nc(N)c2n1)c1ccc(C(=O)N[C@@H](CCC(=O)O)C(=O)O)cc1 [MTX, methotrexate] |  |  | 20% |  |  | 
3 | 3-imidazolylpropyladenosylcobinamide phosphoric acid [Example 10] | 1 µM |  |  | 1.1 µM | 3 s⁻¹ | 0.9%
4 | 3-(5,6-dimethylbenzimidazolyl)propyladenosylcobinamide phosphoric acid [Example 7] |  |  |  | 0.82 µM | 199 s⁻¹ | 59%
5 | 4-(5,6-dimethylbenzimidazolyl)butyladenosylcobinamide phosphoric acid [Example 8] |  |  |  | 11.2 µM | 167 s⁻¹ | 50%
6 | 6-(5,6-dimethylbenzimidazolyl)hexyladenosylcobinamide phosphoric acid [Example 9] | 38 µM | no coenzyme activity |  |  |  | 
7 | C/C1=C2/[N-][C@H]([C@H](CC(N)=O)[C@@]2(C)CCC(=O)NC[C@@H](C)OP(=O)([O-])O[C@H]2[C@@H](O)[C@@H](n3cnc4cc(C)c(C)cc43)O[C@@H]2CO)[C@]2(C)N=C(/C(C)=C3N=C(/C=C4N=C1[C@@H](CCC(N)=O)C\4(C)C)[C@@H](CCC(N)=O)[C@]\3(C)CC(N)=O)[C@@H](CCC(N)=O)[C@]2(C)CC(N)=O.[CH2-][C@H]1O[C@@H](n2cnc3c(N)ncnc32)[C@H](O)[C@@H]1O.[Co] [Vitamin B12 coenzyme, adenosylcobalamin, reference compound] |  |  |  | 0.8 µM | 337 s⁻¹ | 100%

From patent US5405839A, “Vitamin B12 derivative, preparation process thereof, and use thereof” (Teijin Limited, priority 1989, dated 1995)
